“Also recorded” adds a separate entry of the source.
How the values were obtained:
[1] = Single ascending dose study of P5P analog 16, oral, rats; type: in vivo; settings: rat; for adverse reactions / clinical signs: single PO dose 10, 30, 100, 300 mg/kg, observed to 24 hrs
Procedure: Single ascending dose studies were carried out (Example 97: P5P analog 16i: single ascending dose study) to assess the maximum tolerability of a P5P analog (compound of formula 16i) in rats under 4 different doses under one single administration via Per Os (P.O.—oral) route, and to inform the linearity of pharmacokinetics (PK) with multiple dosing.
(§1) In order to isolate the effects of the administered compound of formula 16i on pyridoxine (PL) and P5P (PLP) levels, the basal levels of both PL and P5P were subtracted from the measured concentrations. Baseline subtraction was accomplished by subtracting pre-dose concentrations of either PL or P5P from the subsequent values in the time course.
Formulation—P5P analog 16 was formulated in 1% methylcellulose in water on the day of dosing.
(§2) Animals and group—17 CD ♂ rats with an approx. weigh of ˜250 g were used. Animals were split into 4 groups+1 extra (n=4 for each group). Animals were allowed a 5-day acclimatization period in animal facility. The animal room environment was controlled (temperature 22 f 0.2° C.; relative humidity 55 f 25%; 12 hours light/dark cycle, and 12 air changes per hour). A standard certified commercial rodent chow was provided to the animals ad libitum. Procedures involving the care and use of animals in this study were reviewed and approved by the Institutional Animal Care and Use Committee (IACUC) prior to conduct. One day prior to dosing on D-1, Rats were divided in 4 groups (Table 6). Animals were identified and bled for pre-dose blood. Rats in all groups were fasted overnight (12-14 hours) with access of water.
On day 0, animals in groups 1-2-3 were weighed, and dosed by oral gavage as described in Table 6. Each remaining dosing solutions were stirred (or slightly vortexed), a 50 ul sample were collected and placed in separate tube and both vials immediately frozen on dry ice. Food tray were returned to animals two hours post dosing.
Cage-side observation were done upon dosing, at the end of day, and 24 hrs post dosing (record adverse effect if observed). Animal were weighed again at 24 hrs post dosing.
Blood was collected at indicated time points for all groups at: Pre-dose, 15′, 30′, 1 h, 2 h, 4 h, 6 h, 8 h, 24 h.
(§3) About 150 μL of blood was collected at indicated time points below using K2EDTA tubes. Blood was kept on ice until centrifugation at 4° C. at 6000 RCF for 10 min. Plasma was collected and kept on dry ice until transferred at −80° C.

[2] = Pharmacokinetic study 1: P5P and P5P analog 16, IV and PO, rats; type: in vivo; settings: rat
Procedure: Pharmacokinetic study 1 was carried out (see Example 98: P5P analog 16i: Pharmacokinetic study 1) to assess if P5P analog 16i was able to be converted to P5P and increase plasma P5P, to assess if P5P analog 16i was orally available, and to compare the ability of PO P5P analog 16i and PO P5P to increase plasma P5P.
as §1, with “P5P analog” for “compound of formula”
Formulation—Both P5P (pyridoxal-5-phosphate) and P5P analog 16 were formulated in phosphate buffered saline (PBS) as homogenous solutions on the day of dosing.
as §2, with “and group—13” for “and group—17”, “extra (n=3” for “extra (n=4”, “(Table 7).” for “(Table 6). Animals were identified and bled for pre-dose blood.”, “in Group 3 and 4” for “in all groups”, “access to” for “access of”
On day 0, animals were identified, weighted, and dosed by intravenous (IV) injection or oral gavage (PO) as described in Table 7. Food tray were returned to Group 3 and 4, 2 hrs post dosing.
(§4) Blood was collected at indicated time points below for all groups: Pre-dose, 5′, 15′, 30′, 1 h, 2 h, 4 h, 6 h, 8 h, 24 h.
as §3

[3] = Pharmacokinetic study 4: SP isomer, RP isomer and D-amino acid prodrug, IV and PO, rats; type: in vivo; settings: rat; for conversion to PLP in the plasma: IV (and PO)
From the text: The goal of the study was to compare the pharmacokinetic (PK) profiles of the S-isomer (16i) and the R-isomer (16iii) at the phosphorus center, and to assess the effect of using the D-amino acid (16i with SP and RP isomers) on PK profile.
as §1, with “agents” for “compound of formula 16i”, “PL” for “pyridoxine (PL)”, “PLP” for “P5P (PLP)”, “PLP” for “P5P were”, “PLP” for “P5P”
Formulation—Prodrugs 16i (SP isomer), 16i (RP isomer) and 16i′ (16i with D-amino acid racemate) were formulated in phosphate buffered saline (PBS) as a homogenous solution on the day of dosing.
as §2, with “and group—19” for “and group—17”, “into 6” for “into 4”, “extra (n=3” for “extra (n=4”, “in 6” for “in 4”, “(Table 1).” for “(Table 6).”, “in Group 4, 5 and 6” for “in all groups”
On day 0, animals were weighted, and dosed by IV injection or by oral gavage as described in Table 10. Food tray were returned to Group 4, 5 and 6 two hours post dosing.
as §4, §3

[4] = tested on: plasma enzymes; settings: Sprague Dawley, rat
[5] = Pharmacokinetic study 2: P5P analogs 16 and 16v, IV and PO, rats; type: in vivo; settings: rat
Procedure: Pharmacokinetic study 2 was carried out (Example 99: P5P analog 16i: Pharmacokinetic study 2) to assess the effect of the P5P analog 16v compared to P5P analog 16i.
as §1, with “P5P analogs” for “compound of formula”, “16i and 16v” for “16i”, “P5P” for “P5P (PLP)”
Formulation—Both P5P analog 16 and P5P analog 16v were formulated in 40% hydroxypropyl-β-cyclodextrin in water as homogenous solutions on the day of dosing.
as §2, with “and group—13” for “and group—17”, “extra (n=3” for “extra (n=4”, “(Table 8).” for “(Table 6). Animals were identified and bled for pre-dose blood.”, “in Group 3 and 4” for “in all groups”, “access to” for “access of”
On day 0, animals were identified, weighted, and dosed by intravenous (IV) injection or oral gavage (PO) as described in Table 8. Food tray were returned to Group 3 and 4, 2 hrs post dosing.
as §4, §3

[6] = Pharmacokinetic study 3: P5P analog 16vi and Compound II.I., IV and PO, rats; type: in vivo; settings: rat
Procedure: […] (Example 100: P5P analog 16vi and compound II.I.: Pharmacokinetic study 3) to assess the effect of a P5P analog not encompassed by the compound of Formula I (Compound II.I.), amino acid modification (P5P analog 16vi) and compounds of formula 16iii, 16i and a racemic mixture of 16i.
as §1, with “Compound II.I. and P5P analog 16vi” for “compound of formula 16i”, “P5P” for “P5P (PLP)”
Formulation—Compound II.I. was formulated in 0.9% saline while P5P analog 16vi was formulated in 40% hydroxypropyl-β-cyclodextrin in water as a homogenous solution on the day of dosing.
as §2, with “and group—13” for “and group—17”, “extra (n=3” for “extra (n=4”, “(Table 9).” for “(Table 6). Animals were identified and bled for pre-dose blood.”, “in Group 3 and 4” for “in all groups”, “access to” for “access of”
On day 0, animals were identified, weighted, and dosed by intravenous (IV) injection or oral gavage (PO) as described in Table 9. Food tray were returned to Group 3 and 4, 2 hrs post dosing.
as §4
About 150 μL of blood was collected at indicated time points below using K2EDTA tubes. Blood was kept on ice until centrifugation at 4° C. at 6000 RCF for 10 min. […]

For `Cc1ncc(COP(=O)(N[C@@H](C)C(=O)OC(C)C)Oc2ccccc2)c(C=O)c1O` (mixture of isomers) [Compound 16, (2S)-Isopropyl 2-(((4-formyl-5-hydroxy-6-methylpyridin-3-yl)methoxy)(phenoxy)phosphorylamino)propanoate], the “adverse reactions / clinical signs” value [1] was “no adverse reactions”, the “time after which the dosed compound is no longer left/detectable in the plasma” value ([2]; IV 1 mg/kg) was 6 h and the “ability to increase plasma PLP compared to PLP itself” value ([2]; given PO, FIGS. 7 a-d) was “improved ability”. The “prodrug (P5P analog) time of peak” value ([2]; oral 10 mg/kg) was 0.5 hours.
For `Cc1ncc(COP(=O)(N[C@H](C)C(=O)OC(C)C)Oc2ccccc2)c(C=O)c1O` (mixture of isomers) [Compound 16iii, (2R)-Isopropyl 2-(((4-formyl-5-hydroxy-6-methylpyridin-3-yl)methoxy)(phenoxy)phosphorylamino)propanoate], the “PLP exposure, racemic D-amino acid prodrug compared with L-amino acid prodrug” value [3] was “reduced PLP exposure” and the “conversion to PLP in the plasma” value [3] was “did not convert well to PLP”.
With `Cc1ncc(CO[P@@](=O)(N[C@@H](C)C(=O)OC(C)C)Oc2ccccc2)c(C=O)c1O` [Compound 16i, (S)-Isopropyl 2-((S)-((4-formyl-5-hydroxy-6-methylpyridin-3-yl)methoxy)(phenoxy)phosphorylamino)propanoate] the “T1/2 of PL and PLP as dose was increased” value ([1]; PO 10-300 mg/kg) was “increase”, the “plasma PL and P5P concentrations with increasing dose” value ([1]; PO 10-300 mg/kg) was “clear dose-dependent increase” and the “dose linearity of plasma PL and PLP (Cmax and AUC)” value ([1]; PO) was “dose linearity up to 300 mg/kg”. The signs of toxicity ([1]; highest dose group 300 mg/kg PO) was “did not show any signs of toxicity”, the “adverse reactions / clinical signs” value [1] was “no clinical signs were observed” and the “oral availability of the prodrug (crosses gastrointestinal wall, detectable in circulation)” value ([2]; dosed orally) was “orally bioavailable”. The “conversion to PLP in the plasma” value [3] was “readily converted to PLP” and the “relative P5P formed” value [4] was 100.0%.
For `CCC(CC)COC(=O)[C@H](C)NP(=O)(OCc1cnc(C)c(O)c1C=O)Oc1ccccc1` (stereo partly drawn) [Compound 16v, (2S)-2-Ethylbutyl 2-(((4-formyl-5-hydroxy-6-methylpyridin-3-yl)methoxy)(phenoxy)phosphorylamino)propanoate], the “oral availability of the prodrug (crosses gastrointestinal wall, detectable in circulation)” value ([5]; dosed orally) was “orally bioavailable”, the Tmax ([5]; male, CD, plasma, IV 1 mg/kg, read-out: prodrug (P5P analog) time of Cmax) was 6 min and the “plasma levels of P5P after oral dosing compared to P5P analog 16i” value ([5]; oral dosing) was “slightly greater amounts”.
For `Cc1ncc(COP(=O)(N[C@@H](Cc2ccccc2)C(=O)OC(C)C)Oc2ccccc2)c(C=O)c1O` (stereo partly drawn) [Compound 16vi, (2S)-Isopropyl 2-(((4-formyl-5-hydroxy-6-methylpyridin-3-yl)methoxy)(phenoxy)phosphorylamino)-3-phenylpropanoate], the “oral bioavailability (detection in plasma after oral dosing)” value ([6]; dosed orally) was “did not demonstrate significant oral bioavailability; also recorded: nor P5P were detected in the plasma at any significant levels”, the Cmax ([6]; male, CD, plasma, po, orally 10 mg/kg, read-out: dosed compound Cmax in plasma) was 1650 ng/mL and the dosed compound exposure ([6]; orally 10 mg/kg) was 1592 ng/ml*hr.
